From patent US20250042882A1, “CERTAIN 3-AZABICYCLO[3.1.0]HEXANES AS GLP-1 RECEPTOR MODULATORS” (AstraZeneca AB, priority 2021, published 2025)
pEC50: −log10 of the molar value.

How the values were obtained:
GLP-1R = target: T1, GLP-1R (Homo sapiens, UniProt P43220); assay: EndoC cAMP Accumulation Assay; format: cell-based; conditions: EndoC-βH1 human pancreatic β cell line; HTRF cAMP accumulation
T1 construct: host or cells: EndoC-βH1 human pancreatic beta cell line
Source text: EndoC cAMP Accumulation Assay
A HTRF cAMP assay (cAMP Gs dynamic kit; CisoBio Cat #62AM4PEJ) was used to identify agonists of GLP-1R in a pancreatic insulinoma cell line (EndoC-⊕H1). […] EndoC-PHlcells have detectable GLP-1R messenger ribonucleic acid (mRNA) as detected by quantitative polymerase chain reaction (qPCR). […] The EndoC-PH1 cell line is a valid model of human beta cells and applicable for screenings to identify novel drug target candidates (Mol. Metab., 2018, 8, 144-157). CisBio HTRF cAMP kits are based on a competitive immunoassay using cryptate-labelled anti-cAMP antibody and d2-labeled cAMP. The detection kit is intended for the direct quantitative determination of cAMP. The specific signal (i.e. energy transfer) is inversely proportional to the concentration of cAMP in the standard or sample. Test compounds (10 mM in DMSO) were diluted into assay buffer (HBSS (Sigma #H8264) supplemented with 25 mM HEPES (Gibco #15630, pH 7.4), 0.1% BSA (Sigma #A3059) and 0.5 mM IBMX (Sigma #I7018) included fresh on the day of the assay) into 96 well U-bottom plates (Greiner #650201). Diluted compounds were transferred to ECHO source polypropylene plates (Labcyte #P-05525) and dose response curves were dispensed acoustically using ECHO 550 into black shallow-well u-bottom 384-well HTRF Assay Plates (Corning 4514).
Cryovials of EndoC-H1 (supplied at 1×10e^7 cells/vial) were used directly for screening. The cryovials and were removed from N2(l) and thawed rapidly in a 37° C. water bath. The cells were resuspended in assay buffer and centrifuged at 300 g for 5 min. Cells were resuspended in assay buffer at the appropriate concentration, typically at 12e5 cells per mL (3000 cells per well, dependent on cell batch) and 2.5 μL diluted cells were added to all wells of destination plate by Multidrop combi reagent dispenser (Thermofisher). The plates were incubated at rt for 30 min. The assay was stopped by adding 2.5 μL anti-cAMP cryptate solution to all wells and 2.5 μL cAMP-d2 solution (both diluted 1:20 in lysis buffer) to columns 1-22 by Combi drop. A volume of 2.5 μL cAMP-d2 solution was added to wells E23 to P24 and 2.5 μL lysis buffer added to wells A23 to D24 by multichannel pipette. The plates were incubated at rt for 1 h and read on an Envision plate reader using excitation wavelength of 320 mn and emission of 590 nm and 660 nm.
Raw data from Envision is converted to % DeltaF according to the manufacturer's instructions. Dose response curves are analysed via 4-Parameter Logistical Analysis and assay plate Z′ values obtained. Samples are graphed as percentage (%) activation plots compared to GIP (1-42, Bachem H-5645) with assay window defined by negative control as basal cell cAMP levels and positive control are defined by maximum GIP (82.5 nM) signal. GLP-1 (7-36 amide, Bachem H-6795) dose response curve was included on all plates.

human GLP-1R receptor = target: T2, human GLP-1R receptor (Homo sapiens, UniProt P43220, L260F); assay: CHOK1 GLP-1R cAMP Assay; format: cell-based; conditions: CHO-K1 cell line stably expressing human GLP-1R (Leu260Phe variant); HTRF cAMP; agonist activity
T2 construct: expressed in transfected cells; host or cells: CHO-K1 (ATCC CCL-61)
Description: A cell line stably expressing the human GLP-1R receptor (NM_002062.5, including the naturally-occurring variant Leu260Phe) in a CHO-K1 (ATCC® CCL-61™) was used for assay.
GLP-1 receptor mediated agonist activity was determined in a cell-based assay measuring cyclic adenosine monophosphate (cAMP) levels in cells using Homogeneous Time-Resolved Fluorescence (HTRF) cAMP detection kit (CisBio catalog #62AM4PEC, cAMP Gs Dynamic range kit). The cAMP detection method is based on a competitive immunoassay, in which cAMP produced by the cells and cAMP labeled with the dye d2 compete for binding to a Europium-Cryptate-labeled anti-cAMP antibody. The specific HTRF signal is inversely proportional to the concentration of cAMP.
Compounds were added to individual well in 384 well-assay plates (Greiner #784076) using an Echo (LabCyte) dispenser from 10 mM stocks. Varying concentration of compounds were added to wells, and DMSO was used to normalize each well to a volume of 100 nL. A dose response curve of GLP-1(7-36)NH2 (Bachem H-6795) was included in each run. 5 μL of cAMP concentration response standards are applied in specified wells in the assay plates. Cryo-preserved cells are thawed and resuspended in assay buffer pre-heated to 37° C. (20 mM HEPES pH 7.4, 1× Hank's Balanced Salt Solution (HBSS, Life Technologies #14065) supplemented with 0.1% (w/v) bovine serum albumin (Sigma, A-7030). Cells were centrifuged at 250*g for 5 min at rt, and resuspended in room tempered assay buffer to a final density of 0.16*10^6 cell/mL, to deliver 800 cells/well. 5 μL of assay buffer with 1 mM 3-isobutyl-1-methylxanthin (IBMX; Sigma cat I-7018) was dispensed per well in assay plates using a multidrop combi (Thermo Scientific) subsequently 5 μL of cell suspension was distributed to relevant wells in the assay using a multidrop dispenser. Assay plates were incubated 20 min at rt.
Detection reagents, Europium-Cryptate-labeled anti-cAMP antibody and cAMP labeled with the dye d2, are diluted in lysis buffer, provided by the manufacturer. 5 μL of each detection reagent is supplemented to each assay well using a multidrop dispenser. Assay plates are incubated in the dark for at least one h. The HTRF signal is measured using the HTRF module (excitation: 337 nm, emission A: 665 nm and emission B: 620 nm) in Pherastar FSX (BMG Labtech).
Raw data were converted to pM cAMP using the cAMP standard curve included in each run.
Converted data were further analyzed in Genedata Screener (Genedata) and EC50 determinations were made from agonist dose-response curves analyzed with a curve fitting program using a 4-parameter logistic dose response equation (Equation y=A+((B−A)/1+((C/x)^D))) where A is no stimulation, B is full stimulation, C is the EC50 and D is the Hill slope). The percent effect was determined relative to a saturating concentration of a full GLP-1R agonist (GLP-1(7-36)NH2 has 100% effect in this assay setup).

T2 sequence (P43220 24-463 L260F): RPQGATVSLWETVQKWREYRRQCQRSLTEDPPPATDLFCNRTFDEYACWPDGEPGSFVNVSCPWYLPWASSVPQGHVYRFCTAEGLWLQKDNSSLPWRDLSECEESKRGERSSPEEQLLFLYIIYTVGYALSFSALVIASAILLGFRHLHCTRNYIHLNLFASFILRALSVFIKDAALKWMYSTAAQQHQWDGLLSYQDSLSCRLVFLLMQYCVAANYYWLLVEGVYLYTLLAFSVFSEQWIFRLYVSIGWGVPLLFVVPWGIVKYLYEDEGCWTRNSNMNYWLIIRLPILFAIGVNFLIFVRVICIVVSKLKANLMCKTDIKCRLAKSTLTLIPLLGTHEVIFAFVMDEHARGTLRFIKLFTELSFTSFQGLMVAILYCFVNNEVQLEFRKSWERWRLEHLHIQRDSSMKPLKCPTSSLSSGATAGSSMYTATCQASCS
T1 sequence (P43220 24-463): as the sequence (P43220 24-463 L260F) above, with F237L counted along it

Row | SMILES | pEC50 (GLP-1R) | pEC50 (human GLP-1R receptor)
1 | COc1cc(C(=O)O)cc2c1nc(CN1C[C@@H]3[C@H](C1)[C@H]3c1cccc3c1O[C@](C)(c1ccc(Cl)cn1)O3)n2CC1CCO1 (single isomer, unassigned) [Example 4b, 2-(((1R,5S6R)-6-((R*)-2-(5-Chloropyridin-2-yl)-2-methylbenzo[d][1,3]dioxol-4-yl)-3-azabicyclo[3.1.0]hexan-3-yl)methyl)-4-methoxy-1-(((S)-oxetan-2-yl)methyl)-1H-benzo[d]imidazole-6-carboxylic acid] | 7.85 | 7.21
2 | COc1cc(C(=O)O)cc2c1nc(CN1C[C@@H]3[C@H](C1)[C@H]3c1cccc3c1O[C@](C)(c1ccc(Cl)cn1)O3)n2CC1CCO1 (single isomer, unassigned) [Example 4a, 2-(((1R,5S,6R)-6-((R*)-2-(5-Chloropyridin-2-yl)-2-methylbenzo[d][1,3]dioxol-4-yl)-3-azabicyclo[3.1.0]hexan-3-yl)methyl)-4-methoxy-1-(((S)-oxetan-2-yl)methyl)-1H-benzo[d]imidazole-6-carboxylic acid] | 6.46 | 6.55
3 | C[C@@]1(c2ccc(Cl)cn2)Oc2cccc([C@H]3[C@@H]4CN(Cc5nc6c(Cl)cc(C(=O)O)cc6n5CC5CCO5)C[C@@H]43)c2O1 (relative stereo) [Example 5, 4-Chloro-2-(((1R,5S,6R)-6-((R*)-2-(5-chloropyridin-2-yl)-2-methylbenzo[d][1,3]dioxol-4-yl)-3-azabicyclo[3.1.0]hexan-3-yl)methyl)-1-(((S)-oxetan-2-yl)methyl)-1H-benzo[d]imidazole-6-carboxylic acid] | 7.80 | 7.62
4 | C[C@@]1(c2ccc(Cl)cn2)Oc2cccc([C@H]3[C@@H]4CN(Cc5nc6c(F)cc(C(=O)O)cc6n5CCn5cccn5)C[C@@H]43)c2O1 (single isomer, unassigned) [Example 7, 1-(2-(1H-Pyrazol-1-yl)ethyl)-2-(((1R,5S,6s)-6-((R*)-2-(5-chloropyridin-2-yl)-2-methylbenzo[d][1,3]dioxol-4-yl)-3-azabicyclo[3.1.0]hexan-3-yl)methyl)-4-fluoro-1H-benzo[d]imidazole-6-carboxylic acid] | 6.82 | 6.59
5 | CC1(c2ccc(Cl)cc2F)Oc2cccc([C@H]3[C@@H]4CN(Cc5nc6ccc(C(=O)O)cc6n5CC5CCO5)C[C@@H]43)c2O1 (stereo partly drawn) [Example 1, 2-(((1R,5S,6R)-6-(2-(4-Chloro-2-fluorophenyl)-2-methylbenzo[d][1,3]dioxol-4-yl)-3-azabicyclo[3.1.0]hexan-3-yl)methyl)-1-(((S)-oxetan-2-yl)methyl)-1H-benzo[d]imidazole-6-carboxylic acid] | 7.16 | 6.74
6 | CCn1cncc1Cn1c(CN2C[C@@H]3[C@H](C2)[C@H]3c2cccc3c2O[C@](C)(c2ccc(Cl)cn2)O3)nc2c(F)cc(C(=O)O)cc21 (relative stereo) [Example 14, 2-((1R,5S,6s)-6-(R*)-2-(5-Chloropyridin-2-yl)-2-methylbenzo[d][1,3]dioxol-4-yl)-3-azabicyclo[3.1.0]hexan-3-yl)methyl)-1-((1-ethyl-1H-imidazol-5-yl)methyl)-4-fluoro-1H-benzo[d]imidazole-6-carboxylic acid] | 8.23 | 7.59
7 | CCn1cncc1Cn1c(CN2C[C@@H]3[C@H](C2)[C@H]3c2cccc3c2O[C@](C)(c2ccc(Cl)cc2F)O3)nc2c(F)cc(C(=O)O)cc21 (relative stereo) [Example 15, 2-((1R,5S,6s)-6-((R*)-2-(4-Chloro-2-fluorophenyl)-2-methylbenzo[d][1,3]dioxol-4-yl)-3-azabicyclo[3.1.0]hexan-3-yl)methyl)-1-((1-ethyl-1H-imidazol-5-yl)methyl)-4-fluoro-1H-benzo[d]imidazole-6-carboxylic acid] | 8.52 | 8.07
8 | CC1(c2ccc(Cl)cn2)Oc2cccc([C@H]3[C@@H]4CN(Cc5nc6ccc(C(=O)O)cc6n5CC5CCO5)C[C@@H]43)c2O1 (stereo partly drawn) [Example 3, 2-(((1R,5S,6R)-6-(2-(5-Chloropyridin-2-yl)-2-methylbenzo[d][1,3]dioxol-4-yl)-3-azabicyclo[3.1.0]hexan-3-yl)methyl)-1-(((S)-oxetan-2-yl)methyl)-1H-benzo[d]imidazole-6-carboxylic acid] | 6.77 | 6.59
9 | CCn1cncc1Cn1c(CN2C[C@@H]3[C@H](C2)[C@H]3c2cccc3c2O[C@](C)(c2ccc(Cl)cn2)O3)nc2c(OC)cc(C(=O)O)cc21 (relative stereo) [Example 13, 2-((1R,5S,6s)-6-(R*)-2-(5-Chloropyridin-2-yl)-2-methylbenzo[d][1,3]dioxol-4-yl)-3-azabicyclo[3.1.0]hexan-3-yl)methyl)-1-((1-ethyl-1H-imidazol-5-yl)methyl)-4-methoxy-1H-benzo[d]imidazole-6-carboxylic acid] | 8.39 | 8.09
10 | C[C@@]1(c2ccc(Cl)cn2)Oc2cccc([C@H]3[C@@H]4CN(Cc5nc6c(F)cc(C(=O)O)cc6n5C[C@@H]5CCO5)C[C@@H]43)c2O1 (relative stereo) [Example 9, 2-(((1R,5S,6R)-6-((R*)-2-(5-Chloropyridin-2-yl)-2-methylbenzo[d][1,3]dioxol-4-yl)-3-azabicyclo[3.1.0]hexan-3-yl)methyl)-4-fluoro-1-(((S)-oxetan-2-yl)methyl)-1H-benzo[d]imidazole-6-carboxylic acid] | 7.24 | 7.40
11 | CCn1cncc1Cn1c(CN2C[C@@H]3[C@H](C2)[C@H]3c2cccc3c2O[C@](C)(c2ccc(Cl)cn2)O3)nc2c(Cl)cc(C(=O)O)cc21 (single isomer, unassigned) [Example 12, 4-Chloro-2-(((1R,5S,6s)-6-((R*)-2-(5-chloropyridin-2-yl)-2-methylbenzo[d][1,3]dioxol-4-yl)-3-azabicyclo[3.1.0]hexan-3-yl)methyl)-1-((1-ethyl-1H-imidazol-5-yl)methyl)-1H-benzo[d]imidazole-6-carboxylic acid] | 8.12 | 7.52
